Consider three compounds from ChEMBL document CHEMBL1201862, “PubChem BioAssay data set” (2004).

Active and inactive are the calls of the source.

What all share (assay type): functional
The target in experiment [1] is Vascular endothelial growth factor receptor 2 (Homo sapiens, UniProt P35968).
Experiment [2] concerns the target Mitogen-activated protein kinase 8 (Homo sapiens, UniProt P45983).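 Also: value comes from one member of a kinome-wide kinase profiling panel.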
The target of experiment [3] is T1, Glycogen synthase kinase-3 alpha (Homo sapiens, UniProt P49840).
The target of experiment [4] is Serine/threonine-protein kinase Chk1 (Homo sapiens, UniProt O14757).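 Also: measured as one member of a kinome-wide kinase profiling panel.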
Experiment [5] addresses Aurora kinase B (Homo sapiens, UniProt Q96GD4).
Experiment [6] addresses Casein kinase I isoform alpha (Homo sapiens, UniProt P48729).
The target in experiment [7] is Cyclin-dependent kinase 7 (Homo sapiens, UniProt P50613).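 Also: value comes from a kinome-wide kinase profiling panel in which CDK7 is one member.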
In experiment [8] the target is cAMP-dependent protein kinase catalytic subunit alpha (Homo sapiens, UniProt P17612).
Experiment [9] addresses Tyrosine-protein kinase ABL1 (Homo sapiens, UniProt P00519).
Experiment [10] concerns the target Serine/threonine-protein kinase PAK 4 (Homo sapiens, UniProt O96013).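 Also: value obtained within a kinome profiling panel in which PAK4 was one of the panel members.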
The target in experiment [11] is Serine/threonine-protein kinase TBK1 (Homo sapiens, UniProt Q9UHD2). The experiment in a line: Navigating the Kinome. Panel member name: TBK1.
The target of experiment [12] is Dual specificity tyrosine-phosphorylation-regulated kinase 1A (Homo sapiens, UniProt Q13627).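 Also: measured against DYRK1A as one member of a broad kinome profiling panel.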
Experiment [13] addresses Calcium/calmodulin-dependent protein kinase type II subunit alpha (Homo sapiens, UniProt Q9UQM7). Description: Navigating the Kinome. Panel member name: CAMK2A.
The target of experiment [14] is Mitogen-activated protein kinase kinase kinase kinase 2 (Homo sapiens, UniProt Q12851).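 Also: measured as one member of a kinome-wide kinase panel, with MAP4K2 as the panel entry.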
For experiment [15], the target named is Rho-associated protein kinase 1 (Homo sapiens, UniProt Q13464).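 Also: measured within a broad kinome-wide panel profiling many kinases.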
Experiment [16] addresses Cyclin-dependent kinase 9 (Homo sapiens, UniProt P50750).
The target in experiment [17] is Cyclin-dependent kinase 19 (Homo sapiens, UniProt Q9BWU1). The experiment in a line: Navigating the Kinome. Panel member name: CDC2L6.
For experiment [18], the target named is Macrophage-stimulating protein receptor (Homo sapiens, UniProt Q04912). The experiment in a line: Navigating the Kinome. Panel member name: MST1R.
The target of experiment [19] is cAMP-dependent protein kinase catalytic subunit PRKX (Homo sapiens, UniProt P51817).
For experiment [20], the target named is Focal adhesion kinase 1 (Homo sapiens, UniProt Q05397).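 Also: measured as one member of a kinome panel.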
The target of experiment [21] is Leucine-rich repeat serine/threonine-protein kinase 2 (Homo sapiens, UniProt Q5S007).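 Also: value from a broad kinome-wide panel profiling study in which LRRK2 was one of the kinases tested.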
Experiment [22] concerns the target Serine/threonine-protein kinase D3 (Homo sapiens, UniProt O94806).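 Also: determined within a kinase panel screen, with PRKCN as the panel member.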
For experiment [23], the target named is Activin receptor type-1 (Homo sapiens, UniProt Q04771). The experiment in a line: Navigating the Kinome. Panel member name: ACVR1.
Experiment [24] deals with LIM domain kinase 1 (Homo sapiens, UniProt P53667). Description: Navigating the Kinome. Panel member name: LIMK1.
Experiment [25] addresses Protein kinase C theta type (Homo sapiens, UniProt Q04759). The experiment in a line: Navigating the Kinome. Panel member name: PRKCQ.
Experiment [26] addresses Mitogen-activated protein kinase kinase kinase kinase 4 (Homo sapiens, UniProt O95819).
Experiment [27] addresses Vascular endothelial growth factor receptor 1 (Homo sapiens, UniProt P17948).
For experiment [28], the target named is Dual specificity protein kinase CLK4 (Homo sapiens, UniProt Q9HAZ1).
The target of experiment [29] is Dual specificity mitogen-activated protein kinase kinase 1 (Homo sapiens, UniProt Q02750). Description: Navigating the Kinome. Panel member name: MAP2K1.
The target in experiment [30] is Proto-oncogene tyrosine-protein kinase receptor Ret (Homo sapiens, UniProt P07949).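 Also: measured within a kinome-wide profiling panel, RET as the panel member.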
The target in experiment [31] is Dual specificity protein kinase CLK2 (Homo sapiens, UniProt P49760).
The target of experiment [32] is Leukocyte tyrosine kinase receptor (Homo sapiens, UniProt P29376). The experiment in a line: Navigating the Kinome. Panel member name: LTK.
The target of experiment [33] is Aurora kinase A (Homo sapiens, UniProt O14965).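 Also: value from the Navigating the Kinome kinase panel profiling, panel entry STK6.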
Experiment [34] has as its target Death-associated protein kinase 3 (Homo sapiens, UniProt O43293).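 Also: measured as one member of a kinome-wide profiling panel.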
Experiment [35] addresses Cyclin-dependent kinase 8 (Homo sapiens, UniProt P49336). Description: Navigating the Kinome. Panel member name: CDK8.
Experiment [36] has as its target Fibroblast growth factor receptor 1 (Homo sapiens, UniProt P11362).
The target of experiment [37] is Dual specificity tyrosine-phosphorylation-regulated kinase 1B (Homo sapiens, UniProt Q9Y463). Description: Navigating the Kinome. Panel member name: DYRK1B.
The target of experiment [38] is Tyrosine-protein kinase receptor TYRO3 (Homo sapiens, UniProt Q06418).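 Also: TYRO3 value obtained as one member of a kinome-wide profiling panel.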
Experiment [39] addresses 5'-AMP-activated protein kinase catalytic subunit alpha-1 (Homo sapiens, UniProt Q13131).
The target in experiment [40] is Macrophage colony-stimulating factor 1 receptor (Homo sapiens, UniProt P07333).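 Also: value comes from the Navigating the Kinome screening panel, CSF1R member.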
In experiment [41] the target is ALK tyrosine kinase receptor (Homo sapiens, UniProt Q9UM73).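 Also: ALK tested as one member of a kinase panel screen.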
In experiment [42] the target is Serine/threonine-protein kinase pim-1 (Homo sapiens, UniProt P11309).
Experiment [43] addresses T2, Glycogen synthase kinase-3 beta (Homo sapiens, UniProt P49841).
Experiment [44] has as its target Ribosomal protein S6 kinase alpha-3 (Homo sapiens, UniProt P51812).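 Also: measured within a kinome-wide profiling panel.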
The target of experiment [45] is T3, Neuropeptides B/W receptor type 1 (Homo sapiens, UniProt P48145).
T3 sequence (P48145 whole entry): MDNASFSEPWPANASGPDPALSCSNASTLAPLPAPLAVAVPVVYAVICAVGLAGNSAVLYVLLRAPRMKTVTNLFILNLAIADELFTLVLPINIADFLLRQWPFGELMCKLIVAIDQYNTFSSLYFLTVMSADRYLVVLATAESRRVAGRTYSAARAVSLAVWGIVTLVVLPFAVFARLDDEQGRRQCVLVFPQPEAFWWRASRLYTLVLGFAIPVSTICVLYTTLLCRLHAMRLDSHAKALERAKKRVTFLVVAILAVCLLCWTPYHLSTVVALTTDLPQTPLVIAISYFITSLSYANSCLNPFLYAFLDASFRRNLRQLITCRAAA
The experiment in a line: GPR7 antagonist potency, late-stage follow-up, cell-based, fluorescence, dose response, set 5 (AID 588566).

For experiment [46], the target named is Melanin-concentrating hormone receptor 1 (Homo sapiens, UniProt Q99705). Description: Late-stage fluorescence-based counterscreen for antagonists of the G-protein coupled receptor 7 (GPR7): cell-based dose response assay to identify antagonists of the melanin-concentrating hormone receptor 1 (MCHR1) Set 5. (In general: The purpose of a counterscreen is to sort out artefacts and off-target activity.)

In experiment [47] the target is T2, Glycogen synthase kinase-3 beta. Description: GSK3beta kinase inhibitors, dose response, biochemical, microfluidics, dry powder samples, set 2 (AID 623989).
Experiment [48] addresses Cyclin-dependent kinase 5/CDK5 activator 1 (Homo sapiens, UniProt Q00535). Description: CDK5-p25 kinase inhibition, dose response, selectivity assay for GSK3beta inhibitor project, biochemical, microfluidic mobility shift, dry powder, set 2 (AID 623979).
The target of experiment [49] is T1, Glycogen synthase kinase-3 alpha. Description: human GSK3 alpha kinase inhibition, dose response, selectivity assay for GSK3beta inhibitor project, biochemical, microfluidics, dry powder samples, set 2 (AID 623978).

T2 sequence (P49841 whole entry): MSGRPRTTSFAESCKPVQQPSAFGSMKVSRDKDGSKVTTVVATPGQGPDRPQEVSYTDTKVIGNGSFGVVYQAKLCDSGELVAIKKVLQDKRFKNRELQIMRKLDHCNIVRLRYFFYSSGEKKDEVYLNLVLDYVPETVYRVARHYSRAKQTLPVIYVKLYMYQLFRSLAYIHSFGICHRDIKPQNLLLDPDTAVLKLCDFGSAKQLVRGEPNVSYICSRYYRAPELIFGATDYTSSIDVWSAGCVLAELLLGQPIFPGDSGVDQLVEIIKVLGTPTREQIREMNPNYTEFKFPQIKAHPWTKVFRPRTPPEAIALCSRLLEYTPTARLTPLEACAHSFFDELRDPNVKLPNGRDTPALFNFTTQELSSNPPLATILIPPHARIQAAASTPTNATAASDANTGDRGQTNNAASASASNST
T1 sequence (P49840 whole entry): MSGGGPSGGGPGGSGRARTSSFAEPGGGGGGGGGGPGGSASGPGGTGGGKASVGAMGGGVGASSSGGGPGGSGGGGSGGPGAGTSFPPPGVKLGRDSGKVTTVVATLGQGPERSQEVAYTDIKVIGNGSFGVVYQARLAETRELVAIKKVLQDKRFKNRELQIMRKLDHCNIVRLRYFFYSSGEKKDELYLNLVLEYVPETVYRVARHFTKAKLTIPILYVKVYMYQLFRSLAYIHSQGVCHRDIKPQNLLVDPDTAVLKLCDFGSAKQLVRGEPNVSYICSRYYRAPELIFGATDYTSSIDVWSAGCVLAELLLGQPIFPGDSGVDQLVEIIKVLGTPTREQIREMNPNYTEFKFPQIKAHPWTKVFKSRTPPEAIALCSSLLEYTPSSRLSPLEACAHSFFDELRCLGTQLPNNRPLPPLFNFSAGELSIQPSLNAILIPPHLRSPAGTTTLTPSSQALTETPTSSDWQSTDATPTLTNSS
Chain of Activin receptor type-1 (Q04771 whole entry, the tested form may be a part): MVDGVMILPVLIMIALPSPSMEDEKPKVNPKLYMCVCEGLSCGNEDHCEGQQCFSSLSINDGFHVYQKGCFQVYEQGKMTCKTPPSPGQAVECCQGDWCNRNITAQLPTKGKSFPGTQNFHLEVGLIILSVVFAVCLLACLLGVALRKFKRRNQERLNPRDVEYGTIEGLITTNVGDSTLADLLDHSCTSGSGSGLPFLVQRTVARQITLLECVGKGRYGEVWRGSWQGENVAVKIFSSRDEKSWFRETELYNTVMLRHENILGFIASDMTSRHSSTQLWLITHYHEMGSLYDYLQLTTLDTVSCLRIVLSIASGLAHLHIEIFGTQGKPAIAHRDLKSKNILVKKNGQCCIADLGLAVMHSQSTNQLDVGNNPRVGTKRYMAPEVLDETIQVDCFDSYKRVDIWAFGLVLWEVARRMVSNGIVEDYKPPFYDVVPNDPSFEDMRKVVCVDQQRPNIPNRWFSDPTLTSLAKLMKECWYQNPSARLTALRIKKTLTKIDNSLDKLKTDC
Chain of Tyrosine-protein kinase ABL1 (P00519 whole entry): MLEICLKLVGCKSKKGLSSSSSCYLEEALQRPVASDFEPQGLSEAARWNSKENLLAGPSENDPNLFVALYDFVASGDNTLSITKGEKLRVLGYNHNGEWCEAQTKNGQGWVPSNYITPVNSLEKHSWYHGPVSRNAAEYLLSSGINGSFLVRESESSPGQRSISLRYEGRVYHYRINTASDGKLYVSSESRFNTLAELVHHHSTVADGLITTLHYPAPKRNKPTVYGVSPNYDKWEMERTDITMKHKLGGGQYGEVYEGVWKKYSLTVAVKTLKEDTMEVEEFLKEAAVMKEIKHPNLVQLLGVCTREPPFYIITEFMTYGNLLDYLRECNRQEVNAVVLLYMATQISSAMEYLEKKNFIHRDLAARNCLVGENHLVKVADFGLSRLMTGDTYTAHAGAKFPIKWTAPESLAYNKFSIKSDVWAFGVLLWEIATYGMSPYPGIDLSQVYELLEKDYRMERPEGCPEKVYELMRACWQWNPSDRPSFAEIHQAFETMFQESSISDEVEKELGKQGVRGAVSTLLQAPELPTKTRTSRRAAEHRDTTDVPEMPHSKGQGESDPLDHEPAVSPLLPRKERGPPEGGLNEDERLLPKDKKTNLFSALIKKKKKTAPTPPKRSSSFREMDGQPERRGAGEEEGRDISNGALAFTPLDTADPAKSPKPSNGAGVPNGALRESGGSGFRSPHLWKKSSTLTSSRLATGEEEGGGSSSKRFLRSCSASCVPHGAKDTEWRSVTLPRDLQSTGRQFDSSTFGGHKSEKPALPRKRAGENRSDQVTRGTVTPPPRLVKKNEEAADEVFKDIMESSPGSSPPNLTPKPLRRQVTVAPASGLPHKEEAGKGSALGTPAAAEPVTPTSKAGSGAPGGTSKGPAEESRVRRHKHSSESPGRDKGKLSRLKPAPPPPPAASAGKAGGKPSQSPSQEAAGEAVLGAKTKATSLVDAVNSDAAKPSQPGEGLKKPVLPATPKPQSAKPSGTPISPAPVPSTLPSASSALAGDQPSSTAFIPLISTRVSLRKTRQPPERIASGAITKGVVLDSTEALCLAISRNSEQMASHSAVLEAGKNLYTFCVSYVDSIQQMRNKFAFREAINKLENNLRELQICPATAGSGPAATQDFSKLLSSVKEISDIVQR
Chain of Focal adhesion kinase 1 (Q05397 whole entry): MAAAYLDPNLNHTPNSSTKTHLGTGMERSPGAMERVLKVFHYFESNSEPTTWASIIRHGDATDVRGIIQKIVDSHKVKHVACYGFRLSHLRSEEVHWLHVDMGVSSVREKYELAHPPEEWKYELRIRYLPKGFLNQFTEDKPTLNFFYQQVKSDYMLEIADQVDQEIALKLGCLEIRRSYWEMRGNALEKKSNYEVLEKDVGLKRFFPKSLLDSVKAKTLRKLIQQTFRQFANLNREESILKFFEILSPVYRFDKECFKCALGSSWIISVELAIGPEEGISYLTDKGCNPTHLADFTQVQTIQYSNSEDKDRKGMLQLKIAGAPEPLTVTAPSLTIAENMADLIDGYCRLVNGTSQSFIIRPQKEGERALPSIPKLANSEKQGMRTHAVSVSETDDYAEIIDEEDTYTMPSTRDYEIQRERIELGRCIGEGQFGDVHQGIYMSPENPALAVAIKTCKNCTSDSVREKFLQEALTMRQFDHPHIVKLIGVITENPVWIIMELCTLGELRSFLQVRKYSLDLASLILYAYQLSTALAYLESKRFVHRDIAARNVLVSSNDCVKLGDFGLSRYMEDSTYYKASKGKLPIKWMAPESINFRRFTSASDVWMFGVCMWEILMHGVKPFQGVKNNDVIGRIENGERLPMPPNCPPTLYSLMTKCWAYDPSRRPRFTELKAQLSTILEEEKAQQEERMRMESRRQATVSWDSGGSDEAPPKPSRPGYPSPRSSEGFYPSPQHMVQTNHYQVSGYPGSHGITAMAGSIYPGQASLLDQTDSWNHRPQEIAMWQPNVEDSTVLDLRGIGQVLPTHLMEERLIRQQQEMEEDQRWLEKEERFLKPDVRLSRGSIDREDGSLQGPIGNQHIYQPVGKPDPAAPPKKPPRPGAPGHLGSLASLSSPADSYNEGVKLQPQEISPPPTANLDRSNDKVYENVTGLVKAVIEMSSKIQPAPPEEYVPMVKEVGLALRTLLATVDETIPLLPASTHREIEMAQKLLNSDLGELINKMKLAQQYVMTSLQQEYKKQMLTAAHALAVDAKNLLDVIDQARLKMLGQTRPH
Chain of Tyrosine-protein kinase receptor TYRO3 (Q06418 whole entry): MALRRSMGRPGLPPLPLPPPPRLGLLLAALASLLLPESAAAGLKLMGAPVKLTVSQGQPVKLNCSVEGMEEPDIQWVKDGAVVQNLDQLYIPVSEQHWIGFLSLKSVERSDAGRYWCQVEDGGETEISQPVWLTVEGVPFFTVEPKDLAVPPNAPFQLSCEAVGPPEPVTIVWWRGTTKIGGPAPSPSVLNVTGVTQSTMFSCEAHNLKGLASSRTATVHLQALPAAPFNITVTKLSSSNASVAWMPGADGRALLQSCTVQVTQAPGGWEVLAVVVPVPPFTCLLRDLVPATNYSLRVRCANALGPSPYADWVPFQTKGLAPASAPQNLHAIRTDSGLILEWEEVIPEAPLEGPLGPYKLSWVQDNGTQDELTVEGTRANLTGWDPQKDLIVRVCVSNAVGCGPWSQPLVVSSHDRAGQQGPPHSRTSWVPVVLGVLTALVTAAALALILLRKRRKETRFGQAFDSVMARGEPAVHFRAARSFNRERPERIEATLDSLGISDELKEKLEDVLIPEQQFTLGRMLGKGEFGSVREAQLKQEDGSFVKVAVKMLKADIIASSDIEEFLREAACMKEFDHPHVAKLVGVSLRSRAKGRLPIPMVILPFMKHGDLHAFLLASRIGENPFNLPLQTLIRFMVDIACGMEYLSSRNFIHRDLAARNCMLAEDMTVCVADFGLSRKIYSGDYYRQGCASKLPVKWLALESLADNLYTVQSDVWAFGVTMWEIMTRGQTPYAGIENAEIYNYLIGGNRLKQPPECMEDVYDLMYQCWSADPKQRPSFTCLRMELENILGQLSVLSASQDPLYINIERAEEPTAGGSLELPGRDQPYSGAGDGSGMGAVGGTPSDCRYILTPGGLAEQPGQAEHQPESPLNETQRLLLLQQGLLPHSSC
Chain of Cyclin-dependent kinase 9 (P50750 whole entry): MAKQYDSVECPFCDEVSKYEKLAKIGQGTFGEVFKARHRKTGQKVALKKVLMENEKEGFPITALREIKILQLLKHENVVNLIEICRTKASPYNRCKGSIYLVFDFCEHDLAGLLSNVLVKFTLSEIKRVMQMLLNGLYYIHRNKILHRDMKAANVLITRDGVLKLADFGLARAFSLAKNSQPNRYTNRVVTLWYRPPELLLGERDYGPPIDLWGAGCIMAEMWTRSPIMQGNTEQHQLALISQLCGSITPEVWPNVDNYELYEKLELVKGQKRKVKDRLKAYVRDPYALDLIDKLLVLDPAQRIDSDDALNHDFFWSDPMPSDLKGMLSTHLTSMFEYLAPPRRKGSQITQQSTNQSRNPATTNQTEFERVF

`NC(=O)c1cc2ccncc2s1`: the Ki was 7.94 µM (active) in [1]; 63.1 µM (active) in [2]; 3.98 µM (active) in experiment [3]; 12.6 µM (active) in experiment [4]; 31.6 µM (active) in [5]; 1.58 µM (active) in experiment [6]. The Ki in experiment [7] is 12.6 µM (active); in experiment [8], 3.98 µM (active); in experiment [9], 79.4 µM (active); in experiment [10], 79.4 µM (active); in [11], 79.4 µM (active); in [12], 3.16 µM (active). Further, the Ki in [13] was 79.4 µM (active); in [14], 10 µM (active); in experiment [15], 1.58 µM (active); in experiment [16], 501 nM (active); in experiment [17] it was > 100 µM (inactive); in experiment [18], 39.8 µM (active). In addition, the Ki in experiment [19] was 15.8 µM (active); in experiment [20] it was 100 µM (active); in experiment [21], 10 µM (active); in experiment [22] it was 39.8 µM (active); in [23], 79.4 µM (active); in experiment [24] it was 15.8 µM (active). In addition, the inhibitory constant (Ki) in [25] was 3.16 µM (active); in experiment [26], 25.1 µM (active); in experiment [27], 7.94 µM (active); in experiment [28], 794 nM (active); in experiment [29], 10 µM (active); in experiment [30], 63.1 µM (active). Also, the Ki in experiment [31] is 15.8 µM (active); in [32], 12.6 µM (active); in [33] it was 63.1 µM (active); in experiment [34] it was 2.51 µM (active); in experiment [35], 794 nM (active); in experiment [36], 63.1 µM (active). Further, the Ki in experiment [37] is 1.26 µM (active); in experiment [38], 79.4 µM (active); in [39] it was 31.6 µM (active); in experiment [40], > 100 µM (inactive); in experiment [41], 63.1 µM (active); in experiment [42], 39.8 µM (active). Moreover, the Ki is 5.01 µM (active) in experiment [43] and 25.1 µM (active) in experiment [44].

Turning to `COc1cccc(C(C#N)c2c(Cl)cnn(Cc3cccc4ccccc34)c2=O)c1` (centres undefined), the IC50 is 569 nM (active) in [45] and 12.1 µM (inactive) in experiment [46].

In the case of `COc1cc(/C=N/n2c(S)nnc2C2CCCCC2)cc(Br)c1O`, the AC50 in [47] is 958 nM (active); in experiment [48], 16.8 µM (active); in [49], 10.4 µM (active).

A word on the Ki: it is the dissociation constant of the complex between target and ligand, obtained from inhibition or displacement. By IC50 is commonly meant the concentration that inhibits the measured activity by half. Broadly, the AC50 is the midpoint of the concentration-response curve, whichever way the signal moves.
